Design: species or system dog (beagle)
Settings: dog, in vivo, sc
Description: The in vivo release profiles of granisetron and buprenorphine after subcutaneous injection of Formulations 7A and 7B (Example 7) in dog (beagle) was evaluated using the doses set out in Table 13. The animals were dosed on Days 1 and 8 with the respective formulation.
A validated bioanalytical method was used for the determination of GRN in dog plasma. The analytical method employed liquid chromatography with tandem mass spectrometric detection. The lower limit of quantification of the analytical method was 0.05 ng/mL. The calibration curve ranged from 0.05 to 50.0 ng/mL. Samples above the upper limit of quantitation were diluted into range using control beagle K2-EDTA plasma.

CN1[C@@H]2CCC[C@H]1C[C@@H](NC(=O)c1nn(C)c3ccccc13)C2 [granisetron]
dose linearity with respect to exposure (AUC): dose linearity was indicated

Source: US20180256496A1, “CONTROLLED-RELEASE FORMULATIONS” (Camurus AB, priority 2015, published 2018)
